Results as given in PubChem BioAssay (NCI).
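How tested: cells in 96-well plates exposed to compound for 48 hours at five concentrations. The concentration for 50% growth inhibition is given as GI50. Definition used: TGI = concentration required for complete inhibition of growth.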

How the values were obtained:
Assay in all cases: NCI-60 cell line screen, 48 h
[1] = test system: UACC-257 melanoma
[2] = test system: PC-3 prostate
[3] = test system: SK-OV-3 ovarian
[4] = test system: TK-10 renal
[5] = test system: UACC-62 melanoma
[6] = test system: MOLT-4 leukemia
[7] = test system: EKVX NSCLC
[8] = test system: HL-60(TB) leukemia
[9] = test system: MALME-3M melanoma
[10] = test system: NCI-H522 lung
[11] = test system: NCI-H460 lung
[12] = test system: NCI-H226 lung
[13] = test system: HCC-2998 colon
[14] = test system: M14 melanoma
[15] = test system: HOP-62 NSCLC
[16] = test system: HCT-15 colon
[17] = test system: KM12 colon
[18] = test system: HCT-116 colon
[19] = test system: U251 CNS
[20] = test system: T-47D breast
[21] = test system: LOX IMVI melanoma
[22] = test system: A549 NSCLC
[23] = test system: SF-295 CNS
[24] = test system: NCI/ADR-RES ovarian
[25] = test system: SR leukemia
[26] = test system: SK-MEL-2 melanoma
[27] = test system: SNB-75 CNS
[28] = test system: SW-620 colon
[29] = test system: UO-31 renal
[30] = test system: CCRF-CEM leukemia
[31] = test system: SK-MEL-28 melanoma
[32] = test system: ACHN renal
[33] = test system: DU-145 prostate
[34] = test system: MCF7 breast
[35] = test system: RPMI-8226 leukemia
[36] = test system: SK-MEL-5 melanoma
[37] = test system: CAKI-1 renal
[38] = test system: RXF 393 renal
[39] = test system: BT-549 breast
[40] = test system: COLO 205 colon
[41] = test system: K-562 leukemia
[42] = test system: OVCAR-4 ovarian
[43] = test system: HOP-92 NSCLC
[44] = test system: OVCAR-5 ovarian
[45] = test system: MDA-MB-231 breast
[46] = test system: IGROV1 ovarian
[47] = test system: OVCAR-8 ovarian
[48] = test system: HS 578T breast
[49] = test system: SN12C renal
[50] = test system: SNB-19 CNS
[51] = test system: NCI-H23 lung
[52] = test system: SF-268 CNS
[53] = test system: 786-0 renal
[54] = test system: HT29 colon
[55] = test system: MDA-MB-435
[56] = test system: SF-539 CNS
[57] = test system: OVCAR-3 ovarian
[58] = test system: A498 renal

CCCCC(=O)N/N=C/c1c(O)ccc2ccccc12
GI50 [1]: 3 µM | TGI [1]: > 24.6 µM | GI50 [2]: 0.953 µM | TGI [2]: > 57.5 µM | GI50 [3]: 3.04 µM | TGI [3]: > 100 µM | GI50 [4]: 1.82 µM | TGI [4]: > 24.3 µM | GI50 [5]: 2.3 µM | TGI [5]: 14.2 µM | GI50 [6]: 0.349 µM | GI50 [7]: 1.75 µM | TGI [7]: 7.92 µM | GI50 [8]: 0.452 µM | GI50 [9]: 3.06 µM | TGI [9]: 20.3 µM | GI50 [10]: 1.77 µM | TGI [10]: 10.2 µM | GI50 [11]: 1.36 µM | TGI [11]: > 100 µM | GI50 [12]: 13.7 µM | TGI [12]: > 70.4 µM | GI50 [13]: 3.88 µM | TGI [13]: > 100 µM | GI50 [14]: 1.82 µM | TGI [14]: 14.6 µM | GI50 [15]: 7.95 µM | TGI [15]: > 100 µM | GI50 [16]: 0.532 µM | TGI [16]: > 100 µM | GI50 [17]: 2.28 µM | TGI [17]: > 100 µM | GI50 [18]: 1.32 µM | TGI [18]: > 29.6 µM | GI50 [19]: 1.6 µM | TGI [19]: > 100 µM | GI50 [20]: 3.03 µM | TGI [20]: > 100 µM | GI50 [21]: 1.15 µM | TGI [21]: > 31.8 µM | GI50 [22]: 4.47 µM | TGI [22]: > 92.1 µM | GI50 [23]: 1.83 µM | TGI [23]: 16.5 µM | GI50 [24]: 1.68 µM | TGI [24]: > 30.2 µM | GI50 [25]: 0.45 µM | TGI [25]: 3.57 µM | GI50 [26]: 3.67 µM | TGI [26]: > 23.7 µM | GI50 [27]: 1.57 µM | TGI [27]: > 100 µM | GI50 [28]: 3.54 µM | TGI [28]: > 100 µM | GI50 [29]: 1.87 µM | TGI [29]: 28 µM | GI50 [30]: 0.267 µM | TGI [30]: 1.28 µM | GI50 [31]: 2.16 µM | TGI [31]: > 52.2 µM | GI50 [32]: 1.38 µM | TGI [32]: > 88.6 µM | GI50 [33]: 2.7 µM | TGI [33]: > 100 µM | GI50 [34]: 2.09 µM | TGI [34]: 15.8 µM | GI50 [35]: 0.247 µM | TGI [35]: 1.57 µM | GI50 [36]: 1.84 µM | TGI [36]: 11.4 µM | TGI [37]: 2.26 µM | GI50 [38]: 2.01 µM | TGI [38]: 15.9 µM | GI50 [39]: 0.537 µM | TGI [39]: 6.6 µM | GI50 [40]: 2.61 µM | TGI [40]: > 27.6 µM | GI50 [41]: 1.89 µM | TGI [41]: > 100 µM | GI50 [42]: 1.47 µM | TGI [42]: > 33.2 µM | GI50 [43]: 2.01 µM | TGI [43]: > 84.5 µM | GI50 [44]: 6.97 µM | TGI [44]: > 100 µM | GI50 [45]: 3.51 µM | TGI [45]: > 94.8 µM | GI50 [46]: 0.65 µM | TGI [46]: 7.12 µM | GI50 [47]: 2.78 µM | TGI [47]: > 100 µM | GI50 [48]: 6.54 µM | TGI [48]: > 100 µM | GI50 [49]: 5.44 µM | TGI [49]: > 100 µM | GI50 [50]: 4.26 µM | TGI [50]: > 100 µM | GI50 [51]: 4.14 µM | TGI [51]: > 100 µM | GI50 [52]: 0.874 µM | TGI [52]: > 75 µM | GI50 [53]: 3.65 µM | TGI [53]: > 59.2 µM | GI50 [54]: 27.5 µM | TGI [54]: > 100 µM | GI50 [55]: 4.37 µM | TGI [55]: > 100 µM | GI50 [56]: 2.8 µM | TGI [56]: > 44.9 µM | GI50 [57]: 0.423 µM | TGI [57]: 9.37 µM | GI50 [58]: 7.71 µM | TGI [58]: 44.4 µM
